Source: patent publication US11684614B2, “Formulations of hydroxypyridonate actinide/lanthanide decorporation agents” (priority 2017, dated 2023)
“And” between values parts separate entries of the source, which are not always exact repeats. Equal values may be shown once.

Test: Repeated-treatment efficacy for removing an intravenous dose of 238Pu (excretion, tissue retention, clinical observations), female and male arms;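 on % Recovered Dose ART: abdominal tissue remainder incl GI tract reproductive organs spleen bladder and fat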
Format: in vivo, Swiss-Webster mice
Conditions: male animals, listed as 3,4,3-LI(1,2-HOPO); for % Recovered Dose Urine per Day, Day 3 / % Recovered Dose Urine per Day, Day 4 / % Recovered Dose Urine per Day, Day 5 / % Recovered Dose Urine per Day, Day 6 / % Recovered Dose Urine per Day, Day 7 / % Recovered Dose Urine per Day, Day 2 / % Recovered Dose Urine per Day, Day 1: Day 7 necropsy
Procedure: The objective of this study was to characterize the efficacy of 3,4,3-L1(1,2-HOPO) at enhancing elimination from an internal plutonium burden in female and male Swiss-Webster mice administered a soluble citrate complex of ^238Pu and treated multiple times, starting at 24 hours after the exposure. Efficacy was evaluated by comparing the tissue contents, urinary and fecal excretions of ^238Pu in treated animals versus untreated animals.
The medical countermeasure 3,4,3-L1(1,2-HOPO) was administered parenterally (ip) or orally (po) via consecutive injections or gavages (six daily or twelve twice daily) starting at 24 hours post contamination at the following four selected doses: 30 μmol/kg ip, 150 μmol/kg po, 300 μmol/kg po, and 600 μmol/kg po (equivalent to respective approximate human doses range of […], using the accepted conversion system of mouse doses into human equivalent doses—HED—based on body surface area). Oral doses also included the permeability enhancer selected during formulation development work.
• Challenge isotope: ^238Pu • Challenge dose: 25 nCi (i.e., approximately 0.8 μCi/kg) • Route of contamination: Intravenous (iv) tail-vein • Route of treatment: Intraperitoneal Injection (ip) or Oral (po) • Frequency of treatment: Multiple (once- or twice-daily for 6 days) doses, starting 24 hr postcontamination • Treatment dose calculation: Dose calculations (mg/kg or μmol/kg) for the decorporation agent were based on the individual body weight measured after contamination. • Study Duration: 11 days, in-life
c. […] Test article and control dose formulations were prepared within 1 day of dose administration, by weighing out the appropriate amount of test article, dispersing in vehicle. For ip solutions, the test article was used alone, while for oral suspensions, a mixture of test article and excipient (90:10, w:w) was used. The pH was adjusted to 7.0-7.4 for ip administration and 5.0-5.5 for oral administration with sterile NaOH. Dose formulations were prepared at room temperature and filter-sterilized. • Storage: 2-8° C.; refrigerated; protected from light. • Characterization: The concentration of each test article formulation was verified by high-performance liquid chromatography-mass spectrometry. • Test Article Handling: Test, reference, and control article formulations were handled with the use of eye protection, gloves, and a protective laboratory coat. • Correct Dose Assurance: The test article was weighed with calibrated balances. The administration of each dose formulation was properly documented, and the amount administered to each animal recorded.
e. Experimental Procedures (In-Life Evaluations and Euthanasia) • Contamination: Single administration by intravenous (iv) tail-vein injection (0.2 mL injection volume) under isoflurane anesthesia. Three standard 0.2 mL injections were performed into polyethylene bottles and pre-loaded with aliquots of concentrated nitric acid on each injection day. Six female and six male mice were culled for necropsy 1 hr post-contamination and were used as standards. A11 standards were processed and counted together with the final samples to allow verification of the contamination dose. • Dose Administration: Single administration by intraperitoneal injection (ip) or oral gavage (po) under isoflurane anesthesia. • Mortality/Morbidity: Assessed at least once daily. • Clinical Observations: Recorded once daily (4 hr post-dose on day of treatment), or more often as clinical signs warranted. […]

In the case of `O=C(NCCCN(CCCCN(CCCNC(=O)c1cccc(=O)n1O)C(=O)c1cccc(=O)n1O)C(=O)c1cccc(=O)n1O)c1cccc(=O)n1O` [3,4,3-L1(1,2-HOPO)], the “% Recovered Dose Urine per Day, Day 3” value (animal group B) is reported as 0.61% and 1.15% and 1.12% and 1.18%, the “% Recovered Dose Urine per Day, Day 4” value (animal group B) is reported as 1.30% and 0.41% and 0.54% and 0.89% and the “% Recovered Dose Urine per Day, Day 5” value (animal group B) is reported as 0.61% and 0.58% and 0.10% and 0.65%. For the same molecule, the “% Recovered Dose Urine per Day, Day 6” value (animal group B) was 0.18% and 0.64% and 0.10%, the “% Recovered Dose Urine per Day, Day 7” value (animal group B) was 0.17% and 0.37% and 0.28% and 0.50% and the “% Recovered Dose Urine per Day, Day 2” value (animal group C) was 1.72% and 4.28% and 3.19% and 0.38%. The “% Recovered Dose Urine per Day, Day 3” value (animal group C) was 0.95% and 1.32% and 0.98% and 0.50%, the “% Recovered Dose Urine per Day, Day 4” value (animal group C) was 0.59% and 1.17% and 0.68% and 0.55% and the “% Recovered Dose Urine per Day, Day 5” value (animal group C) was 0.35% and 0.65% and 0.33% and 0.19%. The “% Recovered Dose Urine per Day, Day 6” value (animal group C) was 0.19% and 0.70% and 0.52% and 0.07%, the “% Recovered Dose Urine per Day, Day 7” value (animal group C) was 0.10% and 0.94% and 0.45% and 0.11% and the “% Recovered Dose Urine per Day, Day 1” value (animal group E) was 21.72% and 14.01% and 18.66% and 17.47%. The “% Recovered Dose Urine per Day, Day 2” value (animal group E) was 3.64% and 2.67% and 3.46% and 2.04%, the “% Recovered Dose Urine per Day, Day 3” value (animal group E) was 1.49% and 0.90% and 1.61% and 1.12% and the “% Recovered Dose Urine per Day, Day 4” value (animal group E) was 0.67% and 0.69% and 0.59% and 0.53%. For the same molecule, the “% Recovered Dose Urine per Day, Day 5” value (animal group E) was 0.39% and 0.62% and 0.41%, the “% Recovered Dose Urine per Day, Day 6” value (animal group E) was 0.49% and 0.53% and 0.46% and 0.31% and the “% Recovered Dose Urine per Day, Day 7” value (animal group E) was 0.21% and 0.41% and 0.23% and 0.27%. The “% Recovered Dose Urine per Day, Day 1” value (animal group F) was 19.31% and 19.65% and 13.22% and 25.18%, the “% Recovered Dose Urine per Day, Day 2” value (animal group F) was 3.62% and 1.94% and 2.38% and 2.07% and the “% Recovered Dose Urine per Day, Day 3” value (animal group F) was 1.51% and 1.15% and 1.06%. The “% Recovered Dose Urine per Day, Day 4” value (animal group F) was 0.98% and 0.55% and 0.74% and 0.83%, the “% Recovered Dose Urine per Day, Day 5” value (animal group F) was 0.45% and 0.42% and 0.47% and 0.41% and the “% Recovered Dose Urine per Day, Day 6” value (animal group F) was 0.45% and 0.47% and 0.36% and 0.29%. The “% Recovered Dose Urine per Day, Day 7” value (animal group F) was 0.55% and 0.40% and 0.72% and 0.26%, the “% Recovered Dose ART” value (Day-7 necropsy, animal group B) was 2.16% and 1.57% and 1.65% and 1.32% and the “% Recovered Dose Combined Body” value (Day-7 necropsy, animal group B) was 52.05% and 37.93% and 50.13% and 45.55%. For the same molecule, the “% Recovered Dose Combined Excreta” value (Day-7 necropsy, animal group B) was 47.95% and 62.07% and 49.87% and 54.45%, the “% Recovered Dose Kidney” value (Day-7 necropsy, animal group B) was 0.29% and 0.25% and 0.26% and 0.45% and the “% Recovered Dose SKEL” value (Day-7 necropsy, animal group B) was 15.55% and 20.00% and 23.24% and 20.71%. The “% Recovered Dose SOFT” value (Day-7 necropsy, animal group B) was 3.27% and 3.41% and 2.67% and 3.29%, the “% Recovered Dose Total Feces” value (Day-7 necropsy, animal group B) was 22.40% and 40.49% and 26.02% and 32.13% and the “% Recovered Dose Total Urine” value (Day-7 necropsy, animal group B) was 25.54% and 21.58% and 23.85% and 22.32%. For the same molecule, the “% Recovered Dose ART” value (Day-7 necropsy, animal group C) was 1.42% and 1.55% and 1.84% and 1.39%, the “% Recovered Dose Combined Body” value (Day-7 necropsy, animal group C) was 44.39% and 38.12% and 45.21% and 38.36% and the “% Recovered Dose Combined Excreta” value (Day-7 necropsy, animal group C) was 55.61% and 61.88% and 54.79% and 61.64%.
